# Test system: not listed separately
# Assay: Metabolic stability in rat liver microsomes assessed as compound remaining after 30 mins
# Format: ADME, Microsome
# Settings: read-out: Stability
row,SMILES,remaining at 0.5 h
1,CN[C@@H](CC(C)C)C(=O)N[C@@H]1CC[C@H]2CN(S(=O)(=O)c3cccc(C(F)(F)F)c3)C[C@H]21,26.5%
2,CN[C@@H](CC(C)C)C(=O)N[C@H]1CC[C@@H]2CN(S(=O)(=O)c3ccc(C(F)(F)F)cc3)C[C@@H]21,69.9%
3,CCC[C@H](NC)C(=O)N[C@H]1CC[C@@H]2CN(S(=O)(=O)c3ccc(C(F)(F)F)cc3)C[C@@H]21,83.4%
4,CCCC[C@H](NC)C(=O)N[C@H]1CC[C@@H]2CN(S(=O)(=O)c3ccc(C(F)(F)F)cc3)C[C@@H]21,66.4%
5,CN[C@@H](Cc1ccccc1)C(=O)N[C@H]1CC[C@@H]2CN(S(=O)(=O)c3ccc(C(F)(F)F)cc3)C[C@@H]21,26.2%

# Further lines, results first:
row,remaining at 0.5 h,SMILES
1,47.3%,CN[C@@H](CC(C)C)C(=O)N[C@@H]1CC[C@H]2CN(S(=O)(=O)c3ccc(C(F)(F)F)cc3)C[C@H]21
2,1%,CC(C)C[C@@H](C(=O)N[C@@H]1CC[C@H]2CN(S(=O)(=O)c3cccc(C(F)(F)F)c3)C[C@H]21)N(C)C
3,77.1%,CC(C)(C)[C@H](N)C(=O)N[C@H]1CC[C@@H]2CN(S(=O)(=O)c3ccc(C(F)(F)F)cc3)C[C@@H]21
4,79.4%,CC(C)(C)C[C@H](N)C(=O)N[C@H]1CC[C@@H]2CN(S(=O)(=O)c3ccc(C(F)(F)F)cc3)C[C@@H]21
5,66.5%,CN[C@@H](CC(C)(C)C)C(=O)N[C@H]1CC[C@@H]2CN(S(=O)(=O)c3ccc(C(F)(F)F)cc3)C[C@@H]21

# Test system: not listed separately
# Assay: Plasma clearance in rat at 5 umol/kg, iv and 5 umol/kg, po
# Format: ADME, organism-based
# Settings: not given
row,SMILES,clearance
1,CN[C@@H](CC(C)C)C(=O)N[C@@H]1CC[C@H]2CN(S(=O)(=O)c3ccc(C(F)(F)F)cc3)C[C@H]21,36.7 mL/min/kg
2,CN[C@@H](CC(C)C)C(=O)N[C@H]1CC[C@@H]2CN(S(=O)(=O)c3ccc(C(F)(F)F)cc3)C[C@@H]21,46.7 mL/min/kg

# Target: Voltage-dependent N-type calcium channel subunit alpha-1B (Homo sapiens, UniProt Q00975)
# Sequence (Q00975 whole entry): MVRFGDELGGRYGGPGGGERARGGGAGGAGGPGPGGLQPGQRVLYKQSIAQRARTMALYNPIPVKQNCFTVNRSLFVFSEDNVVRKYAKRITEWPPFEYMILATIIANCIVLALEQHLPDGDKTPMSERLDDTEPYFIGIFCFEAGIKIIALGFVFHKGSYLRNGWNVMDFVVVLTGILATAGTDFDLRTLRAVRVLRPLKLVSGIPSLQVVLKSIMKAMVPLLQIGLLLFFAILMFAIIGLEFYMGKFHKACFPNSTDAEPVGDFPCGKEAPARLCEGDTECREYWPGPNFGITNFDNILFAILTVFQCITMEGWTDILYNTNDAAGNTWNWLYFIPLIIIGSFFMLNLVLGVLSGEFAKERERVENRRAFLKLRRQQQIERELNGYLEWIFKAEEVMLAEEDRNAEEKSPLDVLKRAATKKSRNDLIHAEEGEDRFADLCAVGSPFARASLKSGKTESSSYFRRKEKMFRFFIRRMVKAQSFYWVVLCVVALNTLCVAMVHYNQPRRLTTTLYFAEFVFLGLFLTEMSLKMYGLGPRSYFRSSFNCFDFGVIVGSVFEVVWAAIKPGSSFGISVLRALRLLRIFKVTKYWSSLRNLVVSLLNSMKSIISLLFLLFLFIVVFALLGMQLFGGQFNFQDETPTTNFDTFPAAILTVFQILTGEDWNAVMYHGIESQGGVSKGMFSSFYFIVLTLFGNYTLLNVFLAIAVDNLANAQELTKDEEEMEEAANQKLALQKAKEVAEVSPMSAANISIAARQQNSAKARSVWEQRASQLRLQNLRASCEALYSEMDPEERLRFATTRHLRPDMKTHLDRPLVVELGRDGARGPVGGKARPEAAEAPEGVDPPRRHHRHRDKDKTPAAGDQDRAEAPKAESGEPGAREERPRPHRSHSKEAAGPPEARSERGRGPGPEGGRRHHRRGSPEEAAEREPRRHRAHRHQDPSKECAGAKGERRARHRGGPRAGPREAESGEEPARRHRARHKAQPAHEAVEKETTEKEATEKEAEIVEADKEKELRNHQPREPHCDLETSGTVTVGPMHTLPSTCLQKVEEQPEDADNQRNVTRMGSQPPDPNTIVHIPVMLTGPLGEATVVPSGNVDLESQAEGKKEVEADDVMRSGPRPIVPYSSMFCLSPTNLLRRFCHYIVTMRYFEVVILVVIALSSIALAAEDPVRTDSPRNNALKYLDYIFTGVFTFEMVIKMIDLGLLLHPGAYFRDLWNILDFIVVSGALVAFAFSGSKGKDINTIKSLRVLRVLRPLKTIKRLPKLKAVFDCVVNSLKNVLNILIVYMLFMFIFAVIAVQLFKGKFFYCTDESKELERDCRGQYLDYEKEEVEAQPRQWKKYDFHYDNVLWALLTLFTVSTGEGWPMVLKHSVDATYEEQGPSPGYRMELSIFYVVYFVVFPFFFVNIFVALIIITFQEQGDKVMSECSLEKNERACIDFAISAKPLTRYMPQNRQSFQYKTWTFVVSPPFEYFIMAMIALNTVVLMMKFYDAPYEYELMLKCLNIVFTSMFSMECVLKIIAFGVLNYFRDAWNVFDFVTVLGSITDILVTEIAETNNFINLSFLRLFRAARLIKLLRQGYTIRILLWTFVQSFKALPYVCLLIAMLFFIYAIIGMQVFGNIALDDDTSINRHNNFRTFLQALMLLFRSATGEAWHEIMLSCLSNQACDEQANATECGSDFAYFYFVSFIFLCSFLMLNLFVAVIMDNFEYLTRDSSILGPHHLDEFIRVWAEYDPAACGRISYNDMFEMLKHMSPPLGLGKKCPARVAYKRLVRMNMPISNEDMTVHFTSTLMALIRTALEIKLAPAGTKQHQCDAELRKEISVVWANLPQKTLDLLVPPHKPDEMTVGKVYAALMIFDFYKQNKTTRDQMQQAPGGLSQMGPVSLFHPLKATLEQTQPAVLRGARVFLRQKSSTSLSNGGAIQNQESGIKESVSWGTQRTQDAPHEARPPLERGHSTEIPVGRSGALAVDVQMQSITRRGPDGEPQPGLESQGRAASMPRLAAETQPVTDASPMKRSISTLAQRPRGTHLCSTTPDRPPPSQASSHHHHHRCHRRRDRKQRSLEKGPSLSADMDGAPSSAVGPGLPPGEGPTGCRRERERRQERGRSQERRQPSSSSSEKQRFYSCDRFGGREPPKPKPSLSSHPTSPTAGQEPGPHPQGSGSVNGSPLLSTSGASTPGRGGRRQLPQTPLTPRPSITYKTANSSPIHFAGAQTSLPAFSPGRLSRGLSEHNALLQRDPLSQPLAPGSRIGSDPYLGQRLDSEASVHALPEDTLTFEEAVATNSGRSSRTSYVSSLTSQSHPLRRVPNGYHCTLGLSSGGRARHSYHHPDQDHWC
# Assay: Inhibition of N-type Cav2.2 channel (unknown origin) by FLIPR assay
# Settings: read-out: IC50
row,SMILES,IC50
1,CN[C@@H](CC(C)C)C(=O)N[C@@H]1CC[C@H]2CN(S(=O)(=O)c3cccc(C(F)(F)F)c3)C[C@H]21,0.52 µM
2,CN[C@@H](CC(C)C)C(=O)N[C@H]1CC[C@@H]2CN(S(=O)(=O)c3ccc(C(F)(F)F)cc3)C[C@@H]21,0.75 µM
3,CCC[C@H](NC)C(=O)N[C@H]1CC[C@@H]2CN(S(=O)(=O)c3ccc(C(F)(F)F)cc3)C[C@@H]21,0.96 µM
4,CCCC[C@H](NC)C(=O)N[C@H]1CC[C@@H]2CN(S(=O)(=O)c3ccc(C(F)(F)F)cc3)C[C@@H]21,0.75 µM
5,CN[C@@H](Cc1ccccc1)C(=O)N[C@H]1CC[C@@H]2CN(S(=O)(=O)c3ccc(C(F)(F)F)cc3)C[C@@H]21,0.86 µM

# The remaining lines, values ahead:
row,IC50,SMILES
1,0.77 µM,CN[C@@H](CC(C)C)C(=O)N[C@@H]1CC[C@H]2CN(S(=O)(=O)c3ccc(C(F)(F)F)cc3)C[C@H]21
2,0.45 µM,CC(C)C[C@@H](C(=O)N[C@@H]1CC[C@H]2CN(S(=O)(=O)c3cccc(C(F)(F)F)c3)C[C@H]21)N(C)C
3,1.51 µM,CC(C)(C)[C@H](N)C(=O)N[C@H]1CC[C@@H]2CN(S(=O)(=O)c3ccc(C(F)(F)F)cc3)C[C@@H]21
4,0.87 µM,CC(C)(C)C[C@H](N)C(=O)N[C@H]1CC[C@@H]2CN(S(=O)(=O)c3ccc(C(F)(F)F)cc3)C[C@@H]21
5,0.79 µM,CN[C@@H](CC(C)(C)C)C(=O)N[C@H]1CC[C@@H]2CN(S(=O)(=O)c3ccc(C(F)(F)F)cc3)C[C@@H]21

# Same assay, conditions: read-out: pIC50 (converted)
row,SMILES,IC50
1,CN[C@@H](CC(C)C)C(=O)N[C@@H]1CC[C@H]2CN(S(=O)(=O)c3cccc(C(F)(F)F)c3)C[C@H]21,0.631 µM
2,CN[C@@H](CC(C)C)C(=O)N[C@H]1CC[C@@H]2CN(S(=O)(=O)c3ccc(C(F)(F)F)cc3)C[C@@H]21,0.851 µM

# Now from value to compound:
row,IC50,SMILES
1,0.851 µM,CN[C@@H](CC(C)C)C(=O)N[C@@H]1CC[C@H]2CN(S(=O)(=O)c3ccc(C(F)(F)F)cc3)C[C@H]21
2,0.933 µM,CC(C)(C)C[C@H](N)C(=O)N[C@H]1CC[C@@H]2CN(S(=O)(=O)c3ccc(C(F)(F)F)cc3)C[C@@H]21
3,0.832 µM,CN[C@@H](CC(C)(C)C)C(=O)N[C@H]1CC[C@@H]2CN(S(=O)(=O)c3ccc(C(F)(F)F)cc3)C[C@@H]21

# Test system: not listed separately
# Assay: Volume of distribution at steady state in rat at 5 umol/kg, iv and 5 umol/kg, po
# Format: ADME, organism-based
# Settings: in vivo, read-out: Vdss
row,SMILES,Vd
1,CN[C@@H](CC(C)C)C(=O)N[C@@H]1CC[C@H]2CN(S(=O)(=O)c3ccc(C(F)(F)F)cc3)C[C@H]21,5.6 L/kg
2,CN[C@@H](CC(C)C)C(=O)N[C@H]1CC[C@@H]2CN(S(=O)(=O)c3ccc(C(F)(F)F)cc3)C[C@@H]21,13.2 L/kg

# Test system: not listed separately
# Assay: AUC in rat at 5 umol/kg, po
# Format: ADME, organism-based
# Settings: plasma
row,SMILES,AUC
1,CN[C@@H](CC(C)C)C(=O)N[C@@H]1CC[C@H]2CN(S(=O)(=O)c3ccc(C(F)(F)F)cc3)C[C@H]21,221 ng·h/mL
2,CN[C@@H](CC(C)C)C(=O)N[C@H]1CC[C@@H]2CN(S(=O)(=O)c3ccc(C(F)(F)F)cc3)C[C@@H]21,422 ng·h/mL

# Test system: not listed separately
# Assay: Half life in rat at 5 umol/kg, iv and 5 umol/kg, po
# Format: ADME, organism-based
# Settings: in vivo
row,SMILES,half-life
1,CN[C@@H](CC(C)C)C(=O)N[C@@H]1CC[C@H]2CN(S(=O)(=O)c3ccc(C(F)(F)F)cc3)C[C@H]21,2.1 h
2,CN[C@@H](CC(C)C)C(=O)N[C@H]1CC[C@@H]2CN(S(=O)(=O)c3ccc(C(F)(F)F)cc3)C[C@@H]21,3.3 h

# Test system: not listed separately
# Assay: Oral bioavailability in rat at 5 umol/kg
# Format: ADME, organism-based
# Settings: in vivo
row,SMILES,bioavailability
1,CN[C@@H](CC(C)C)C(=O)N[C@@H]1CC[C@H]2CN(S(=O)(=O)c3ccc(C(F)(F)F)cc3)C[C@H]21,21%
2,CN[C@@H](CC(C)C)C(=O)N[C@H]1CC[C@@H]2CN(S(=O)(=O)c3ccc(C(F)(F)F)cc3)C[C@@H]21,50%

# Test system: not listed separately
# Assay: AUC in rat at 30 umol/kg, po
# Format: ADME, organism-based, Plasma
# Settings: plasma, 30 umol/kg
row,SMILES,AUC
1,CN[C@@H](CC(C)C)C(=O)N[C@@H]1CC[C@H]2CN(S(=O)(=O)c3cccc(C(F)(F)F)c3)C[C@H]21,405 ng·h/mL
2,CC(C)C[C@@H](C(=O)N[C@@H]1CC[C@H]2CN(S(=O)(=O)c3cccc(C(F)(F)F)c3)C[C@H]21)N(C)C,35 ng·h/mL

# Test system: not listed separately
# Assay: Solubility of the compound by chemiluminescent nitrogen detection method
# Settings: not given
row,SMILES,solubility
1,CN[C@@H](CC(C)C)C(=O)N[C@@H]1CC[C@H]2CN(S(=O)(=O)c3cccc(C(F)(F)F)c3)C[C@H]21,75 µM
2,CN[C@@H](CC(C)C)C(=O)N[C@H]1CC[C@@H]2CN(S(=O)(=O)c3ccc(C(F)(F)F)cc3)C[C@@H]21,77 µM
3,CCC[C@H](NC)C(=O)N[C@H]1CC[C@@H]2CN(S(=O)(=O)c3ccc(C(F)(F)F)cc3)C[C@@H]21,97 µM
4,CCCC[C@H](NC)C(=O)N[C@H]1CC[C@@H]2CN(S(=O)(=O)c3ccc(C(F)(F)F)cc3)C[C@@H]21,38 µM

# Next, values leading:
row,solubility,SMILES
1,27 µM,CN[C@@H](CC(C)C)C(=O)N[C@@H]1CC[C@H]2CN(S(=O)(=O)c3ccc(C(F)(F)F)cc3)C[C@H]21
2,79 µM,CC(C)C[C@@H](C(=O)N[C@@H]1CC[C@H]2CN(S(=O)(=O)c3cccc(C(F)(F)F)c3)C[C@H]21)N(C)C
3,94 µM,CC(C)(C)[C@H](N)C(=O)N[C@H]1CC[C@@H]2CN(S(=O)(=O)c3ccc(C(F)(F)F)cc3)C[C@@H]21
4,68 µM,CC(C)(C)C[C@H](N)C(=O)N[C@H]1CC[C@@H]2CN(S(=O)(=O)c3ccc(C(F)(F)F)cc3)C[C@@H]21
5,76 µM,CN[C@@H](CC(C)(C)C)C(=O)N[C@H]1CC[C@@H]2CN(S(=O)(=O)c3ccc(C(F)(F)F)cc3)C[C@@H]21

# Test system: not listed separately
# Assay: Oral bioavailability in rat at 30 umol/kg
# Format: ADME, organism-based
# Settings: in vivo, 30 umol/kg
row,SMILES,bioavailability
1,CN[C@@H](CC(C)C)C(=O)N[C@@H]1CC[C@H]2CN(S(=O)(=O)c3cccc(C(F)(F)F)c3)C[C@H]21,10.5%
2,CC(C)C[C@@H](C(=O)N[C@@H]1CC[C@H]2CN(S(=O)(=O)c3cccc(C(F)(F)F)c3)C[C@H]21)N(C)C,0.8%

# Test system: not listed separately
# Assay: Metabolic stability in human liver microsomes assessed as compound remaining after 30 mins
# Format: ADME, Microsome
# Settings: read-out: Stability
row,SMILES,remaining at 0.5 h
1,CN[C@@H](CC(C)C)C(=O)N[C@@H]1CC[C@H]2CN(S(=O)(=O)c3cccc(C(F)(F)F)c3)C[C@H]21,25.5%
2,CN[C@@H](CC(C)C)C(=O)N[C@H]1CC[C@@H]2CN(S(=O)(=O)c3ccc(C(F)(F)F)cc3)C[C@@H]21,54.4%
3,CCC[C@H](NC)C(=O)N[C@H]1CC[C@@H]2CN(S(=O)(=O)c3ccc(C(F)(F)F)cc3)C[C@@H]21,74.6%
4,CCCC[C@H](NC)C(=O)N[C@H]1CC[C@@H]2CN(S(=O)(=O)c3ccc(C(F)(F)F)cc3)C[C@@H]21,51.1%
5,CN[C@@H](Cc1ccccc1)C(=O)N[C@H]1CC[C@@H]2CN(S(=O)(=O)c3ccc(C(F)(F)F)cc3)C[C@@H]21,26.8%

# Now from value to compound:
row,remaining at 0.5 h,SMILES
1,50.5%,CN[C@@H](CC(C)C)C(=O)N[C@@H]1CC[C@H]2CN(S(=O)(=O)c3ccc(C(F)(F)F)cc3)C[C@H]21
2,0.1%,CC(C)C[C@@H](C(=O)N[C@@H]1CC[C@H]2CN(S(=O)(=O)c3cccc(C(F)(F)F)c3)C[C@H]21)N(C)C
3,75.6%,CC(C)(C)[C@H](N)C(=O)N[C@H]1CC[C@@H]2CN(S(=O)(=O)c3ccc(C(F)(F)F)cc3)C[C@@H]21
4,41.8%,CC(C)(C)C[C@H](N)C(=O)N[C@H]1CC[C@@H]2CN(S(=O)(=O)c3ccc(C(F)(F)F)cc3)C[C@@H]21
5,33.6%,CN[C@@H](CC(C)(C)C)C(=O)N[C@H]1CC[C@@H]2CN(S(=O)(=O)c3ccc(C(F)(F)F)cc3)C[C@@H]21

# Test system: not listed separately
# Assay: Plasma clearance in rat at 5 umol/kg, iv and 30 umol/kg, po
# Format: ADME, organism-based
# Settings: plasma
row,SMILES,clearance
1,CN[C@@H](CC(C)C)C(=O)N[C@@H]1CC[C@H]2CN(S(=O)(=O)c3cccc(C(F)(F)F)c3)C[C@H]21,60 mL/min/kg
2,CC(C)C[C@@H](C(=O)N[C@@H]1CC[C@H]2CN(S(=O)(=O)c3cccc(C(F)(F)F)c3)C[C@H]21)N(C)C,56.7 mL/min/kg

# Test system: not listed separately
# Assay: Half life in rat at 5 umol/kg, iv and 30 umol/kg, po
# Format: ADME, organism-based
# Settings: in vivo
row,SMILES,half-life
1,CN[C@@H](CC(C)C)C(=O)N[C@@H]1CC[C@H]2CN(S(=O)(=O)c3cccc(C(F)(F)F)c3)C[C@H]21,2 h
2,CC(C)C[C@@H](C(=O)N[C@@H]1CC[C@H]2CN(S(=O)(=O)c3cccc(C(F)(F)F)c3)C[C@H]21)N(C)C,1.4 h

# Test system: not listed separately
# Assay: Volume of distribution at steady state in rat at 5 umol/kg, iv and 30 umol/kg, po
# Format: ADME, organism-based
# Settings: in vivo, read-out: Vdss
row,SMILES,Vd
1,CN[C@@H](CC(C)C)C(=O)N[C@@H]1CC[C@H]2CN(S(=O)(=O)c3cccc(C(F)(F)F)c3)C[C@H]21,9.2 L/kg
2,CC(C)C[C@@H](C(=O)N[C@@H]1CC[C@H]2CN(S(=O)(=O)c3cccc(C(F)(F)F)c3)C[C@H]21)N(C)C,5.2 L/kg
